Reference: patent US9492789B2, “Draw solute for forward osmosis, forward osmosis water treatment device, and forward osmosis method for water treatment” (Samsung Electronics Co., Ltd., priority 2012, dated 2016)

Legend:
[1] = Solubility change of 10 wt % osmosis draw solution on slow heating (LCST, separation temperature, reversibility); assay type: physicochemical
Description: Each osmosis draw solution including the compounds of Examples 1 to 5 and Comparative Examples 1 and 2 at a concentration of 10 wt % is slowly heated from room temperature, and the solubility change of the solution is observed according to the temperature. The term “lower critical solution temperature (LCST)” indicates the temperature at which the solution begins to suddenly turn opaque, and the term “separation temperature” indicates the temperature in which the solution begins to be precipitated.

[2] = Osmotic pressure analysis of osmosis draw solution by freezing point depression; assay type: physicochemical; details: draw solution concentration 10 wt %
Experimental: Osmosis draw solutions having the various concentrations shown in the following Table 1 are prepared, and the osmotic pressure of the osmosis draw solution including the NIPAam oligomer prepared from Examples 1 to 4 is analyzed using the osmotic pressure measurer according to a freezing point depression.

For C=CC(=O)NC(C)C [Comparative Example 1, N-isopropylacrylamide], the LCST ([1]; 10 wt % solution heated from room temperature, temperature at which solution begins to suddenly turn opaque) was 36-37 °C, the Reversibility ([1]; @ 25° C.) was “◯” and the “Osmotic pressure, Osmol concentration” value [2] was 738 mOsmol/kg. The “Osmotic pressure, atm (equivalents)” value [2] was 18 atm.
